From EP3391747A1, “USE OF PHENOXYPYRIDINYL-SUBSTITUTED (1H-1,2,4-TRIAZOL-1-YL)ALCOHOLS FOR ENHANCING CROP PERFORMANCE” (Bayer AG, priority 2018, dated 2018) come the findings set out here.

Assay [1] relates to winter wheat. The assay can be described thus: Field trial in winter wheat: impact on yield, greening and canopy coverage under pathogen-free conditions. The note with it: 125 g a.i./ha; for Grain Yield (% of Control) / Grain Yield: sprayed threefold at BBCH 31, 39 and 69 as 100EC formulation; for Grain Yield (% of Control): control = 100EC blank formulation; for Grain Yield: harvest July 2017; for Greening (% of Control): measured visually at BBCH growth stage 65, untreated control plots = 100%; for Canopy Coverage: tractor-mounted RGB camera system, BBCH growth stage 37. Format: in vivo, winter wheat variety "Dekan". On the procedure: A field trial in winter wheat was conducted in the experimental station "Laacherhof" in Germany from autumn 2016 to summer 2017.
Seeds of the winter wheat variety "Dekan" were planted in October 2016. Fertilization, herbicide- and plant growth regulator applications were carried out according to the local agricultural practice. Additionally, a cover spray with the fungicidal composition "Pronto® Plus" was carried out at BBCH growth stage 51 in order to keep the field trial pathogen-free. The trial was conducted with 4 replicates and the replicates 2, 3 and 4 were randomized. The plot size was 8.8 m^2.
The compounds 2-[6-(4-chlorophenoxy)-2-(trifluoromethyl)-3-pyridyl]-1-(1,2,4-triazol-1-yl)propan-2-ol (I.01) and 2-[6-(4-bromophenoxy)-2-(trifluoromethyl)-3-pyridyl]-1-(1,2,4-triazol-1-yl)propan-2-ol (1.02) were sprayed threefold at BBCH growth stages 31, 39 and 69 with an use rate of 125 g a.i./ha (a.i. = active ingredient, i.e. the respective compound of formula (I)). Both compounds were applied as a 100EC formulation (100EC = emulsion concentrate comprising 100 g/L of the respective active ingredient).
The winter wheat was harvested in July 2017.
The greening effect was measured visually at BBCH growth stage 65. The greening of the untreated control plots corresponds to 100% and the plots of the other treatments were directly compared to the control plots (table 1).
The canopy coverage was measured by a tractor-mounted RGB camera system on May 11, 2017 at BBCH growth stage 37 (table 1). Table 1: Impact of different compounds on yield, greening and canopy coverage

Assay [2] relates to Septoria tritici. As to the kind of experiment: Septoria tritici test / in vitro microtest (liquid medium, microtitre plates, optical density at 620 nm). The assay is classed as cell-based. As to conditions: for EC50 (Mean): mean over the 14 strains; for EC50: 5 days of incubation. The procedure:
In an in-vitro microtest, several compounds were tested against different strains of Septoria tritici.
The microtest was performed in liquid medium with 50% malt medium using microtitre plates.
The active compounds are applied as technical active substances dissolved in methanol and 8 concentrations were prepared. The resulting concentration range was 0; 0.0032; 0.016; 0.08; 0.4; 2; 10; and 50 µg a.i. /ml. A mycelium suspension of different strains of Septoria tritici was used for inoculation. After 5 days of incubation in darkness under shaking (10 Hrz) the optical density in each cavity was determined photometrically at 620 nm. […] Table 3: Septoria tritici test /in vitro

The test system of assay [3] is leaf discs of grape plants. As to the kind of experiment: Leaf disc test: chlorophyll content (greening effect) by SPAD-502 chlorophyll meter. The note with it: 1 ppm; after 3 days at room temperature (21°C); 5 replicates. The procedure: According to this invention the chlorophyll content is measured by means of the commercially available hand-held chlorophyll meter SPAD-502 (Konica Minolta).
In a lab experiment, leaf discs of grape plants were put in petri dishes containing solutions of different compounds. 5 replicates were used for each treatment. Afterwards, the petri dishes were incubated for max. 7 days at room temperature (21°C). After 3 days, the chlorophyll content of the leaf discs was measured by using a commercially available hand-held chlorophyll meter (SPAD-502, Konica Minolta). Table 2: Impact of 2-[6-(4-bromophenoxy)-2-(trifluoromethyl)-3-pyridyl]-1-(1,2,4-triazol-1-yl)propan-2-ol (I.02) on the chlorophyll content (greening effect) in leaf discs

For the molecule `CC(O)(Cn1cncn1)c1ccc(Oc2ccc(Cl)cc2)nc1C(F)(F)F` (stereo not shown) [Compound 1.01, 2-[6-(4-chlorophenoxy)-2-(trifluoromethyl)-3-pyridyl]-1-(1,2,4-triazol-1-yl)propan-2-ol], the “Grain Yield (% of Control)” value in assay [1] is 108 % of Control. Moreover, in assay [1], the “Grain Yield” value is recorded as 74,6 dt/ha. The “Greening (% of Control)” value in assay [1] is reported as 108 % of Control. The “Canopy Coverage” value in assay [1] came to 58%. Further, the “EC50 (Mean)” value in assay [2] was 0,0203 ppm. The EC50 in assay [2] (strain 01/16) is given as 0,1348 ppm; in assay [2] (strain 02/16), 0,0248 ppm; in assay [2] (strain 03/16), 0,0032 ppm; in assay [2] (strain 04/16), 0,0355 ppm; in assay [2] (strain 05/16), 0,0503 ppm; in assay [2] (strain 06/16), 0,0039 ppm. In addition, the EC50 in assay [2] (strain 07/16) is on record as 0,0032 ppm; in assay [2] (strain 08/16), 0,0641 ppm; in assay [2] (strain 09/16) it was 0,1002 ppm; in assay [2] (strain 11/16), 0,0034 ppm; in assay [2] (strain 12/16), 0,0715 ppm; in assay [2] (strain 13/16), 0,0055 ppm. Besides, the values for the EC50 in assay [2] (strain 14/16) and in assay [2] (strain 15/16) were 0,0147 ppm and 0,0663 ppm, respectively.

Turning to `CC(O)(Cn1cncn1)c1ccc(Oc2ccc(Br)cc2)nc1C(F)(F)F` (stereo not shown) [Compound 1.02, 2-[6-(4-bromophenoxy)-2-(trifluoromethyl)-3-pyridyl]-1-(1,2,4-triazol-1-yl)propan-2-ol], the “SPAD Reading” value in assay [3] was 32. Besides, in assay [1], the “Grain Yield (% of Control)” value is on record as 112 % of Control. Besides, in assay [1], the “Grain Yield” value is reported as 77,8 dt/ha. Moreover, the “Greening (% of Control)” value in assay [1] was 137 % of Control. For the same molecule, the “Canopy Coverage” value in assay [1] came to 58%. For the same molecule, in assay [2], the “EC50 (Mean)” value was 0,0133 ppm. In addition, the EC50 in assay [2] (strain 01/16) was 0,0187 ppm; in assay [2] (strain 02/16), 0,0108 ppm; in assay [2] (strain 03/16) it was 0,0043 ppm; in assay [2] (strain 04/16), 0,0433 ppm; in assay [2] (strain 05/16), 0,0223 ppm; in assay [2] (strain 06/16), 0,0033 ppm. For the same molecule, the EC50 in assay [2] (strain 07/16) is 0,0032 ppm; in assay [2] (strain 08/16), 0,0629 ppm; in assay [2] (strain 09/16), 0,0416 ppm; in assay [2] (strain 11/16), 0,0038 ppm; in assay [2] (strain 12/16), 0,0806 ppm; in assay [2] (strain 13/16), 0,0169 ppm. Further, the values for the EC50 in assay [2] (strain 14/16) and in assay [2] (strain 15/16) were 0,0080 ppm and 0,0059 ppm, respectively.

As to `CC(C)(C)C(O)(CCc1ccc(Cl)cc1)Cn1cncn1` (stereo not shown) [Tebuconazole, reference compound], in assay [3], the “SPAD Reading” value is on record as 25. In addition, the “EC50 (Mean)” value in assay [2] is given as 7,4138 ppm. Further, the EC50 in assay [2] (strain 01/16) is listed as 8,1102 ppm; in assay [2] (strain 02/16) it was 14,4303 ppm; in assay [2] (strain 03/16), 13,2784 ppm; in assay [2] (strain 04/16), 50,0000 ppm; in assay [2] (strain 05/16), 8,5712 ppm; in assay [2] (strain 06/16), 10,6222 ppm. The EC50 is reported as 5,4355 ppm in assay [2] (strain 07/16); 4,2639 ppm in assay [2] (strain 08/16); 27,1082 ppm in assay [2] (strain 09/16); 0,6823 ppm in assay [2] (strain 11/16); 2,1260 ppm in assay [2] (strain 12/16); 28,6583 ppm in assay [2] (strain 13/16). Moreover, the EC50 in assay [2] (strain 14/16) is listed as 3,4790 ppm; in assay [2] (strain 15/16) it was 2,3577 ppm.
